One data set concerns peritoneal mast cell. The data set is described as follows: Inhibition of histamine release from mast cell in abdominal cavity of rats by antigen-antibody reaction. It counts as cell-based, rat. The note with it: for effect on natural release of histamine (in words) / activity at 1000 µM: 10^-3 M; for activity at 1000 µM / activity at 100 µM / activity at 10 µM / activity at 1 µM: Rattus norvegicus, Mast cell, 20 min, DNP-Ascaris 20 microgramms/ml, read-out: Amount of histamine released from peritoneal mast cell (Control=100); for activity at 100 µM: 10^-4 M; for activity at 10 µM: 10^-5 M; for activity at 1 µM: 10^-6 M; for inhibitory activity compared with tranilast (in words): range of 10^-6 M to 10^-3 M. Here is the method:
Examination was made on the activity of inhibition of histamine release from mast cell by antigen-antibody reaction.
Swine ascaris extract solution was dinitrophenylated according to Aisen's method, dialysed, and lyophilized. The product was administered as antigen together with Bordetella Pertussis vaccine subcutaneously into the foot pad of rat. Eight days later, blood was taken in order to obtain antiserum. The PCA titer for this antiserum in rat was 32 to 64.
Heparin-containing PBS was injected intraperitoneally to rat which was sacrificed by exsanguination, after which the abdomen was well massaged. Then the injected PBS was collected and purified by washing several times by centrifugation. The number of the mast cells contained in the solution was determined and adjusted to the designed concentration. As to method of sensitizing the cell, the above cell suspension (6 ml, 2×10^6 cells/ml) was treated with anti-DNP-Ascaris rat serum (PCA titer 32) (6 ml) and the mixture was incubated in the presence of heparin at 37° C. for 2 hours.
To the sensitized mast cell suspension, the solution of the compound to be tested was added, and the mixture was preliminarily incubated at 37° C. for 12 minutes. After addition of the solution of antigen DNP-Ascaris (final concentration: 20 microgramms/ml), the mixture was further incubated for 20 minutes. After completion of the reaction, the solution was centrifuged (500 G, 10 min.) at a low temperature to obtain a supernatant solution. Histamine contained in the supernatant solution was determined by fluorometry using orthophthalaldehyde method.

For the next data set, the target named is T1, hyaluronidase (Bos taurus, UniProt Q2YDK3).
T1 sequence (Q2YDK3 36-553): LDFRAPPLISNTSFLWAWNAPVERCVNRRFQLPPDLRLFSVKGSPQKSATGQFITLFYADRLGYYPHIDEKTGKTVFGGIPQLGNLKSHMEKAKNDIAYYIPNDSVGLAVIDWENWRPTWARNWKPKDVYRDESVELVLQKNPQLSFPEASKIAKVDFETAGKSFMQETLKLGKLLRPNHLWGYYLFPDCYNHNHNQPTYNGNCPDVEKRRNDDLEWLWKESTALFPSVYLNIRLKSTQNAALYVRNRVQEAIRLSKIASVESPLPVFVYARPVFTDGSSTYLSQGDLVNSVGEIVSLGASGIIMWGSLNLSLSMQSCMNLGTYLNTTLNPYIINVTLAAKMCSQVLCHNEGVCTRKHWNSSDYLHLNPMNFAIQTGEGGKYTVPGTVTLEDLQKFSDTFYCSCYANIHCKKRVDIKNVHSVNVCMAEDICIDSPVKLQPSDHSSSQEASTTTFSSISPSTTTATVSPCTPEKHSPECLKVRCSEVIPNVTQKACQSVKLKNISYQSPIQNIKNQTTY
The data set is described as follows: Antihyaluronidase activity (modified Morgan-Elson method, activated by Compound 48/80 or CaCl2). It counts as biochemical. The note with it: hyaluronidase 340 NF unit/ml, 37° C. From the text: In view of the fact that antiallergic agents such as sodium cromoglicate (DSCG), tranilast, etc. inhibit the hyaluronidase activity and that compounds which release histamine from the mast cells such as the […] and polymixin B activate the hyaluronidase, it is considered that the hyaluronidase inhibiting activity can be taken as an index for the antiallergic action. [ct. The 5th Medicinal Chemistry Symposium (Dec. 9 and 10, 1983; Kyoto) Synopsis of Lectures, page 68]. On the basis of such knowledge, the compounds according to the invention were tested for anti-hyaluronidase activity and found to have the excellent activities.
A buffer solution of hyaluronidase (0.1 ml) was taken in a test tube and buffer solutions of various compounds in various concentrations (0.2 ml each) were added. The mixture was incubated at 37° C. for 20 minutes. Then, a buffer solution of activating agent (Compound 48/80 or CaCl2) (0.2 ml) was added up to the total volume of 0.5 ml, and the mixture was incubated at 37° C. for 20 minutes. To this solution, potassium hyaluronate buffer solution (0.5 ml) was added and the mixture was incubated at 37° C. for 40 minutes. After cooling, the solution was neutralized with 0.4N aqueous solution of sodium hydroxide (0.2 ml) to stop the reaction. On the resulting solution, OD585 was determined by modified Morgan-Elson method. A buffer solution or water (0.2 ml) was used as a control in place of the solution of the compounds in the same operation including OD585 measurement. (Final concentration of hyaluronidase was 340 NF unit/ml.)

For data set [1], the system named is ileum of guinea pig active-sensitized with ovalbumin. The data set can be described thus: Anti-Schultz-Dale action: ovalbumin-induced contraction of sensitized ileum. The conditions noted are these: 10^-3 M. On the procedure: A piece of ileum of guinea pig active-sensitized with ovalbumin with Freund complete adjuvant was suspended in Tyrode's solution in a Magnus tube and incubated with a solution of the compound to be tested for a predetermined duration. The contraction of the piece of ileum induced by applying the ovalubumin was compared with that attributed to 10^-6 M histamine dihydrochloride. The anti-Schultz-Dale action was shown in terms of the rate of inhibition to the contraction.

Another data set concerns SRS-A. The data set is described as follows: Anti-SRS-A action: ileum contraction induced by crude SRS-A solution. Set-up: species or system guinea pig. Here is the method:
A piece of lung of guinea pig sensitized with ovalbumin was incubated with antigen ovalbumin at 37° C. for 20 minutes and supernatant was separated in order to use as a crude SRS-A solution.
A piece of ileum of a normal guinea pig was suspended in Tyrode's solution in a Magnus tube and incubated with a solution of the compound to be tested for a predetermined duration. The contraction of the piece of ileum induced by adding the above crude SRS-A solution was compared with that attributed to 10^-6 M histamine dihydrochloride (which was taken as 100). The anti-SRS-A action was shown in terms of the rate of inhibition to the contraction.

Data set [2] concerns passive cutaneous anaphylaxis. The data set is described as follows: Anti-passive cutaneous anaphylaxis (PCA) activity in rats. It counts as in vivo, Wistar strain rats. The conditions noted are these: for Average Inhibition Rate (%), Antiserum Dilution: × 16 / Average Inhibition Rate (%), Antiserum Dilution: × 32: 100 mg/kg PO, rats; for anti-PCA activity (in words): rat, in vivo. On the procedure: Wistar strain rats were sensitized with ovalbumin using aluminium hydroxide gel and Bordetella Pertussis vaccine as adjuvants. Dilutions of antiserum (16-fold and 32-fold) obtained by collecting blood samples 14 days later were administered subcutaneously in the dorsal skin of the rats of the same strain at the rate of 0.1 ml per spot, and the rats were grown for 48 hours. One hour after peroral administration of the sample solution, a mixture of antigen ovalbumin and Evans-blue dye was administered to the tail venous of the animal according to the ordinary procedure. Thirty minutes later, the animals were sacrificed by exsanguination, and the areas of blue spots (long diameter×short diameter) eliciting on the portion of the antiserum injection at the dorsal skin were measured to obtain the rate of inhibition based on the average value shown by the control animals.

A further data set can be described thus: Acute toxicity. The note with it: mouse, in vivo, mice, one week. On the procedure:
As test animals, ddy-strain mice (male) were used. According to the conventional procedure, suspension or solution of test compound was administered to the animals. From the number of the dead animals up to one week after the administration, LD50 values were obtained by Provit method.

Consider seven molecules from US5006548A, “Acrylamidobenzoic acid derivatives and their use” (Sawai Pharmaceutical Co., Ltd., priority 1984, dated 1991).

Structures are written as SMILES.

By IC50 is commonly meant the concentration needed to halve the response being measured. Low values mean greater potency in that assay, high ones weaker potency in that assay. By LD50 is commonly meant the dose at which mortality reaches 50%.

Take `O=C(C=Cc1ccsc1)Nc1ccccc1C(=O)O` [Compound 1, 2-[3-(3-thienyl)acrylamido]benzoic acid]: in the data set on peritoneal mast cell, the “inhibition of histamine release from mast cell (in words)” value (“inhibition of histamine release” for short) is reported as “action of inhibiting release of histamine from the mast cell even at the low concentration of 10^-6 M”, the “effect on natural release of histamine (in words)” value was “inhibited natural release of histamine”, the activity at 1000 µM is -88% and the activity at 100 µM stood at 11%. Besides, in the data set on peritoneal mast cell, the activity at 10 µM stood at 36%, the activity at 1 µM came to 31% and the “inhibitory activity compared with tranilast (in words)” value is “stronger inhibitory activity than the control tranilast”. For the same molecule, the IC50 against hyaluronidase amounted to 86 µM. Further, in data set [1], the “anti-Schultz-Dale action (in words)” value is “strong anti-Schultz-Dale action” and the “inhibition of contraction (anti-Schultz-Dale)” value came out at 83.5%. For the same molecule, in the data set with SRS-A, the “anti-SRS-A action (in words)” value is “mild anti-SRS-A action”. Further, the “inhibition of SRS-A induced contraction” value in the data set with SRS-A (10^-3 M) is 23.9%. For the same molecule, in the data set with SRS-A (10^-4 M), the “inhibition of SRS-A induced contraction” value is listed as 14.8%. For the same molecule, in data set [2], the “Average Inhibition Rate (%), Antiserum Dilution: × 16” value was 31.6% and the “Average Inhibition Rate (%), Antiserum Dilution: × 32” value is reported as 41.8%. The median lethal dose (LD50) at 168 h in the data set “Acute toxicity” (Intravenous) turned out to be 438 mg/kg. For the same molecule, the LD50 at 168 h in “Acute toxicity” (PO) was 615 mg/kg.
As for `O=C(C=Cc1cccs1)Nc1ccccc1C(=O)O` [Compound 2, 2-[3-(2-thienyl)acrylamido]benzoic acid], in the data set on peritoneal mast cell, the “inhibition of histamine release” value is given as “action of inhibiting release of histamine from the mast cell even at the low concentration of 10^-6 M”, the “effect on natural release of histamine (in words)” value is listed as “inhibited natural release of histamine”, the activity at 1000 µM was -130% and the activity at 100 µM is -70%. In the data set with peritoneal mast cell, the activity at 10 µM turned out to be 24%, the activity at 1 µM was 11% and the “inhibitory activity compared with tranilast (in words)” value is given as “stronger inhibitory activity than the control tranilast”. On hyaluronidase, the IC50 was 140 µM. In data set [1], the “anti-Schultz-Dale action (in words)” value is given as “strong anti-Schultz-Dale action” and the “inhibition of contraction (anti-Schultz-Dale)” value was determined as 100%. In addition, the “anti-SRS-A action (in words)” value in the data set with SRS-A was “mild anti-SRS-A action”. Further, the “inhibition of SRS-A induced contraction” value in the data set on SRS-A (10^-3 M) worked out at 11.0%. In data set [2], the “Average Inhibition Rate (%), Antiserum Dilution: × 16” value is listed as 26.7%; the “Average Inhibition Rate (%), Antiserum Dilution: × 32” value is 21.2%; the “anti-PCA activity (in words)” value is “showed the anti-PCA activity”. The molecule further displayed an LD50 at 168 h in the data set “Acute toxicity” (Intravenous) of 277 mg/kg. In addition, the 50% lethal dose (LD50) at 168 h in “Acute toxicity” (PO) was determined as 400 mg/kg.
With `O=C(C=Cc1ccco1)Nc1ccccc1C(=O)O` [Compound 3, 2-[3-(2-furyl)acrylamido]benzoic acid], in the data set with peritoneal mast cell, the “inhibition of histamine release” value was “strong inhibition from 10^-4 M”, the activity at 1000 µM came out at 0%, the activity at 100 µM amounted to 36% and the activity at 10 µM is 85%. Moreover, in the data set on peritoneal mast cell, the activity at 1 µM amounted to 95% and the “inhibitory activity compared with tranilast (in words)” value was “stronger inhibitory activity than the control tranilast”. On hyaluronidase, this molecule registered a concentration for half-maximal inhibition (IC50) of 160 µM. The “anti-PCA activity (in words)” value in data set [2] is “showed the anti-PCA activity”.
At hyaluronidase, `O=C(C=Cc1ccco1)Nc1cc(Cl)ccc1C(=O)O` [Compound 4] came in with a 50% inhibitory concentration (IC50) of 258 µM.
On the same count and under the same terms, with `O=C(C=Cc1ccco1)Nc1cc([N+](=O)[O-])ccc1C(=O)O` [Compound 5] the figure was 300 µM.
Same read-out and setting: with `Cn1cccc1C=CC(=O)Nc1ccccc1C(=O)O` [Compound 6] the figure was 120 µM.
On to `COc1ccc(/C=C/C(=O)Nc2ccccc2C(=O)O)cc1OC` [Tranilast, reference compound], for which, in the data set with peritoneal mast cell, the activity at 1000 µM turned out to be 29%, the activity at 100 µM was determined as 67%, the activity at 10 µM is 95% and the activity at 1 µM was 95%. The “anti-Schultz-Dale action (in words)” value in data set [1] was “no action”. Moreover, the “anti-SRS-A action (in words)” value in the data set with SRS-A is on record as “no action”.
